Legend:
[1] = tested on: transient middle cerebral artery occlusion; assay: Transient MCAO, pre-treatment study; assay type: in vivo, Sprague-Dawley rats
Method: Next, I examined whether pretreatment with Tat-peptides would reduce stroke damage. Experiments were carried out in adult male Sprague-Dawley rats subjected to transient middle cerebral artery occlusion (MCAO) for 90 minutes by the intraluminal suture method (36,37). Animals were fasted overnight and injected with atropine sulfate (0.5 mg/kg IP). After 10 minutes anesthesia was induced with 3.5% halothane in a mixture of nitrous oxide and oxygen (Vol. 2:1) and maintained with 0.8% halothane. Rats were orally intubated, mechanically ventilated, and paralyzed with pancuronium bromide (0.6 mg/kg IV). Body temperature was maintained at 36.5-37.5° C. with a heating lamp. Polyethylene catheters in the femoral artery and vein were used to continuously record blood pressure and to sample blood for gas and pH measurements. […] This produces an extensive infarction encompassing the cerebral cortex and basal ganglia. […] Physiological parameters (body temperature, blood pressure, blood gases) were monitored and maintained throughout the experiment (Table 1). All experimental manipulations and analyses of data were performed by individuals blinded to the treatment groups. The extent of cerebral infarction was measured 24 h after MCAO onset (FIG. 7C inset). The postural reflex test (38), and the forelimb placing test (39) were used to grade neurological function on a scale of 0 to 12 (normal=0; worst=12) during MCAO (at 50 minutes) and 24 h thereafter.

[2] = Physiological variables in post-treatment MCAO study; assay type: in vivo, Sprague-Dawley rats
Method: Next, I examined whether treatment with Tat-NR2B9c could attenuate ischemic neuronal damage in-vivo when given after stroke onset. […] Infarction volume and neurological outcome measurements were performed at times identical to the pre-treatment study. Body temperature, blood pressure and blood gases were monitored throughout the 24 h experiment and maintained equivalent between groups (Table 2).

[3] = tested on: cortical neuronal cultures; assay: Sublethal stretch injury with or without NMDA, cell death in cortical cultures; assay type: cell-based
Method: […]. In brief, cerebral cortices from 10 to 12 embryos were incubated for 10 min in 0.05% trypsin-EDTA, dissociated by trituration, and plated on flexible membranes coated with poly-L-ornithine in 6 well plates (Flexcell International Corporation, Hillsborough, N.C.) at a density of 3.25×10^6 cells per well. Plating medium consisted of DMEM supplemented with 10% heat-inactivated horse serum (Gibco) and (in mM) 2 glutamine, 25 glucose, and 26 bicarbonate. The cultures were maintained at 37° C. in a humidified 5% CO2 atmosphere. After 3 days in vitro, growth of non-neuronal cells was halted by a 48 h exposure to 10 μM FDU-solution (5 μM uridine, 5 μM (+)-5-fluor-2′-deoxyuridine). This produces cultures in which >85% of the cells are neurons, based on immunohistochemical staining for glial fibrillary associated protein (exclusive to astrocytes), and for the NMDAR1 subunit (not shown). The cultures were used for experiments after 12-14 days in vitro.
The cultures, grown on silastic membranes as above, were placed in the Flexercell® FX-3000™ Strain Unit (Flexcell Int., Inc.), a computer-driven instrument that uses a vacuum pulse to deform the culture substrate. In all experiments, the cortical cultures were stretched to 130% of their original length for 1 s, inducing a sublethal injury as recently characterized by us (Arundine et al., 2003). The stretched neurons maintained cell membrane integrity, viability, and electrophysiological function.
Cell death was determined by serial quantitative measurements of propidium iodide (PI) fluorescence using a multiwell plate fluorescence scanner (Cytofluor II, PerSeptive Biosytems, Framingham, Mass., USA) as described previously (Sattler et al., 1997; Sattler et al., 1998). In brief, the culture medium in each tissue culture well was replaced with control solution containing 50 μg/ml PI, and a baseline fluorescence reading was taken. Sequential readings were then taken at appropriate intervals over the 20 h observation period. The fraction of dead cells in each culture at a given time was calculated as: Fraction dead=(Ft−Fo)/FNMDA Where Ft=PI fluorescence at time t, F0=initial PI fluorescence at time zero and FNMDA=background subtracted PI fluorescence of identical cultures from the same dissection and plating, 20-24 h after a 60 min exposure to 1 mM NMDA at 37° C. Based on manual observations at the time of validation of this technique, this NMDA exposure routinely produced near complete neuronal death in each culture but had no effect on surrounding glia (also see (Bruno et al., 1994; David et al., 1996; Sattler et al., 1997)). Adding Triton X-100 (0.1%) to cultures treated in this manner produced an additional 10-15% increase in PI fluorescence due to permeabilization of non-neuronal cell membranes, consistent with a 10-15% glial component in the cultures.
All experiments were performed at 37° C. Unless otherwise indicated, all solutions contained nimodipine (2 μM) and CNQX (10 μM) to restrict the actions of applied NMDA to NMDARs by preventing the secondary activation of other pathways (Sattler et al., 1998). In general, the cultures were washed ×2 with control solution and immediately stretched to 130% of their original length for 1 s. After the stretch, they were washed ×1 with control solution alone or challenged with an additional treatment (e.g., NMDA) and placed at 37° C. for 1 h. They were then washed ×1 with control solution and then with control solution containing 50 μg/ml PI to obtain a baseline reading. In pilot studies, baseline readings obtained at this stage were similar to those obtained by staining the cells with PI prior to stretch. As the stretch causes splashing of the bath solution, staining with PI after stretch reduced biohazard potential and artifacts associated with PI outside the culture well. Unstretched controls were manipulated identically to stretched cultures.

In the case of Tat-KLSSIESDV [Tat-NR2B9c], the “reduction in cortical infarction” value ([1]; 3 nMoles/g i.v. 45 min prior to MCAO, 24 h after MCAO onset) is reported as 70.7±11.23%, the “reduction of volume of total cerebral infarction” value ([1]; 3 nMoles/g i.v. 45 min prior to MCAO, 24 h after MCAO onset, vs controls) is reported as 54.6±11.27% and the “24 h neurological scores” value ([1]; 3 nMoles/g i.v. bolus 45 min prior to MCAO) is reported as “trend toward improvement”. For the same substance, the “Body Temperature” value ([2]; After MCAo (15 min)) was 36.8 ± 0.08 °C, the MABP ([2]; After MCAo (15 min)) was 119 ± 4 mmHg and the “Body Temperature” value ([2]; After MCAo (24 hr)) was 36.4 ± 0.24 °C. The Body weight ([2]; After MCAo (24 hr)) was 279 ± 8 g, the “Blood gases PCO2” value ([2]; Before MCAo(15 min)) was 40.1 ± 1.0 mmHg and the “Blood gases PH” value ([2]; Before MCAo(15 min)) was 7.43 ± 0.02. For the same substance, the “Blood gases PO2” value ([2]; Before MCAo(15 min)) was 105 ± 4 mmHg, the “Body Temperature” value ([2]; Before MCAo(15 min)) was 36.6 ± 0.07 °C and the MABP ([2]; Before MCAo(15 min)) was 103 ± 5 mmHg. For the same substance, the Body weight ([2]; Before anesthesia) was 306 ± 7 g, the “Blood gases PCO2” value ([2]; During MCAo (15 min)) was 39.8 ± 0.9 mmHg and the “Blood gases PH” value ([2]; During MCAo (15 min)) was 7.43 ± 0.01. For the same substance, the “Blood gases PO2” value ([2]; During MCAo (15 min)) was 111 ± 4 mmHg, the “Body Temperature” value ([2]; During MCAo (15 min)) was 37.0 ± 0.07 °C and the MABP ([2]; During MCAo (15 min)) was 119 ± 8 mmHg. For the same substance, the “Body Temperature” value ([2]; During MCAo (60 min)) was 36.7 ± 0.11 °C, the MABP ([2]; During MCAo (60 min)) was 143 ± 5 mmHg and the “Body Temperature” value ([2]; During MCAo (65 min)) was 36.9 ± 0.08 °C. The MABP ([2]; During MCAo (65 min)) was 137 ± 4 mmHg, the “toxic effects in control or stretched cultures” value ([3]; 50 nM) was “no toxic effects” and the “heightened vulnerability of stretched cultures to NMDA toxicity, pre-treatment” value ([3]; 50 nM 30 min prior to stretch, NMDA 30 μM 1 h, cell death at 20 h) was “completely abolished”. For the same substance, the “enhanced cell mortality in stretched neurons by NMDA challenge, post-treatment” value ([3]; 50 nM applied after terminating the 1 h NMDA challenge) was “reduced the enhanced cell mortality”.
